The numbers were not newly measured in US20260069653A1, “COMPLEMENT INHIBITOR DOSING REGIMENS” (Apellis Pharmaceuticals, Inc., priority 2021, published 2026), which cites them from elsewhere.

Square brackets hold non-standard residues; d marks the D form. Trp(5-F) = N[C@@H](Cc1c[nH]c2ccc(F)cc12)C(=O)O; Trp(5-Me) = Cc1ccc2[nH]cc(C[C@H](N)C(=O)O)c2c1; Trp(6-F) = N[C@@H](Cc1c[nH]c2cc(F)ccc12)C(=O)O; Bpa = N[C@@H](Cc1ccc(C(=O)c2ccccc2)cc1)C(=O)O; 1Nal = N[C@@H](Cc1cccc2ccccc12)C(=O)O; 2Nal = N[C@@H](Cc1ccc2ccccc2c1)C(=O)O; Igl = N[C@H](C(=O)O)C1Cc2ccccc2C1

In this series the test system is complement activation. As to conditions: fold more active than compstatin amidated at the C-terminus; published data and assays; cited from earlier work.

On to “Ac-ICV(1-Nal)QDWGAHRCT-COOH (Ac-ICV[1Nal]QDWGAHRCT-OH; not fully specified (bridges); printed as Ac-ICV(1-Nal)QDWGAHRCT-COOH; cysteine pairing not given here) [Ac V4(1-Nal)/H9A-OH]”, for which the Activity over compstatin is 30x.
In the case of “Ac-ICV(2-Igl)QDWGAHRCT-CONH2 (Ac-ICV[Igl]QDWGAHRCT-NH2; not fully specified (bridges); printed as Ac-ICV(2-Igl)QDWGAHRCT-CONH2; cysteine pairing not given here) [Ac-V42Igl/H9A]”, the Activity over compstatin is reported as 39x.
Regarding “Ac-ICV(2-Igl)QDWGAHRCT-COOH (Ac-ICV[Igl]QDWGAHRCT-OH; not fully specified (bridges); printed as Ac-ICV(2-Igl)QDWGAHRCT-COOH; cysteine pairing not given here) [Ac-V42Igl/H9A-OH]”, the Activity over compstatin is listed as 37x.
Regarding “Ac-ICV(2-Nal)QDWGAHRCT-CONH2 (Ac-ICV[2Nal]QDWGAHRCT-NH2; not fully specified (bridges); printed as Ac-ICV(2-Nal)QDWGAHRCT-CONH2; cysteine pairing not given here) [Ac-V4(2-Nal)/H9A]”, the Activity over compstatin is given as 99x.
For “Ac-ICV(5-methyl-W)QDWGAHRCT-CONH2 (Ac-ICV[Trp(5-Me)]QDWGAHRCT-NH2; not fully specified (bridges); printed as Ac-ICV(5-methyl-W)QDWGAHRCT-CONH2; cysteine pairing not given here) [Ac-V4(5-MeW)/H9A]”, the Activity over compstatin was 67x.
Regarding “Ac-ICV(5fW)QDWGAHRCT-CONH2 (Ac-ICV[Trp(5-F)]QDWGAHRCT-NH2; not fully specified (bridges); printed as Ac-ICV(5fW)QDWGAHRCT-CONH2; cysteine pairing not given here) [Ac-V4(5fW)/H9A]”, the Activity over compstatin is recorded as 31x.
For “Ac-ICV(Bpa)QDWGAHRCT-CONH2 (Ac-ICV[Bpa]QDWGAHRCT-NH2; not fully specified (bridges); printed as Ac-ICV(Bpa)QDWGAHRCT-CONH2; cysteine pairing not given here) [Ac-V4(Bpa)/H9A]”, the Activity over compstatin is listed as 86x.
Consider “Ac-ICV(Bpa)QDWGAHRCT-COOH (Ac-ICV[Bpa]QDWGAHRCT-OH; not fully specified (bridges); printed as Ac-ICV(Bpa)QDWGAHRCT-COOH; cysteine pairing not given here) [Ac-V4(Bpa)/H9A-OH]”, for which the Activity over compstatin is 49x.
For Ac-ICVVQDWGHHRCT-CONH2 [Ac-compstatin], the Activity over compstatin was 3x.
On to “Ac-ICVWQD(5fW)GAHRCT-CONH2 (Ac-ICVWQD[Trp(5-F)]GAHRCT-NH2; not fully specified (bridges); printed as Ac-ICVWQD(5fW)GAHRCT-CONH2; cysteine pairing not given here) [Ac-V4W/W7(5fW)/H9A]”, for which the Activity over compstatin is listed as 121x.
For “Ac-ICVWQDWGAHRCT-CONH2 (Ac-ICVWQDWGAHRCT-NH2; not fully specified (bridges); printed as Ac-ICVWQDWGAHRCT-CONH2; cysteine pairing not given here) [Ac-V4W/H9A]”, the Activity over compstatin is 45x.
For the substance “Ac-ICVWQDWGAHRCdT-COOH [Ac-V4W/H9A/T13dT-OH]”, the Activity over compstatin is 55x.
As to Ac-ICVYQDWGAHRCT-CONH2 [Ac-V4Y/H9A], the Activity over compstatin is listed as 14x.
Take “Ac-ICV[(2-Nal)QDWGAHRCT-COOH (Ac-ICV[2Nal]QDWGAHRCT-OH; not fully specified (bridges); printed as Ac-ICV[(2-Nal)QDWGAHRCT-COOH; cysteine pairing not given here) [Ac V4(2-Nal)/H9A-OH]”: the Activity over compstatin is 38x.
“H-GICV(5fW)QD(5fW)GAHRCTN-COOH (H-GICV[Trp(5-F)]QD[Trp(5-F)]GAHRCTN-OH; not fully specified (bridges); cysteine pairing not given here) [G/V4(5f-WV)/WV7(5fW)/H9A+N-OH]”: the Activity over compstatin is 112x.
As to “H-GICV(6fW)QD(6fW)GAHRCTN-COOH (H-GICV[Trp(6-F)]QD[Trp(6-F)]GAHRCTN-OH; not fully specified (bridges); cysteine pairing not given here) [+G/V4(6fW)/W7(6fW)H9A+N-OH]”, the Activity over compstatin is given as 126x.
